Assay results reported in patent EP0603240B1, “SAFENING HERBICIDAL PYRAZOLYLSULFONYLUREAS” (priority 1991, dated 1993).

What was measured:
Type in all cases: in vivo
[1] = system: barnyardgrass (Echinochloa crusgalli); assay: Example 19, Procedure II: Herbicide No. 1 + ERADICANE EXTRA with added antidotes
[2] = system: velvetleaf (Abutilon theophrasti); assay: as above
[3] = system: barnyardgrass (Echinochloa crusgalli); assay: Example 7, Procedure II: Herbicide No. 1 + metolachlor (No. 12) with antidotes
Summary of the method: (§1)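 Herbicide and antidote in acetone were mixed into silt loam soil used to cover seeded beds, followed by 0.6 cm overhead irrigation, then sub-irrigation in the greenhouse. Percent injury was scored against herbicide-alone and untreated controls, averaged over duplicates. Herbicide No. 1 was combined with metolachlor.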

[4] = system: velvetleaf (Abutilon theophrasti); assay: as above
Summary of the method: as §1

[5] = system: barnyardgrass (Echinochloa crusgalli); assay: Example 21, Procedure II: Herbicide No. 1 + SUTAN PLUS (butylate + antidote) with antidotes
[6] = system: velvetleaf (Abutilon theophrasti); assay: as above
corn [7] = assay: Example 8, Procedure II: Herbicide No. 1 + butachlor (No. 9) with antidotes
Summary of the method: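 Corn sown in silt loam and covered with soil pre-mixed with acetone-applied Herbicide No. 1 plus butachlor, with or without antidote. Given 0.6 cm overhead irrigation, then sub-irrigated in greenhouse; antidote effect is percent injury without minus with antidote.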

corn [8] = assay: Example 9, Procedure II: Herbicide No. 1 + pretilachlor (No. 13) with antidotes
Summary of the method: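 Corn seeded in silt loam; seed bed covered with soil into which herbicide and antidote (in acetone) were mixed, alongside untreated and herbicide-only controls. Initial overhead irrigation equal to 0.6 cm rainfall, then greenhouse sub-irrigation. Response scored as percent injury; safening as injury difference without vs with antidote.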

[9] = system: barnyardgrass (Echinochloa crusgalli); assay: Example 18, Procedure II: Herbicide No. 1 + ERADICANE (EPTC + R-25788) with auxiliary antidotes
Summary of the method: (§2)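 Greenhouse pre-plant-incorporated test in corn with weeds: herbicide No. 1 plus ERADICANE (EPTC + R-25788) at 8.96 kg/ha and an auxiliary antidote, applied in acetone, mixed into soil covering the seed bed. Overhead irrigation equivalent to 0.6 cm rainfall, then sub-irrigation; response scored as percent injury.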

[10] = system: velvetleaf (Abutilon theophrasti); assay: as above
Summary of the method: as §2

[11] = Herbicide No.1 0.56 kg/ha + ERADICANE EXTRA 8.96 kg/ha, antidote 2.24 kg/ha
[12] = Herbicide No.1 0.56 kg/ha + ERADICANE EXTRA 8.96 kg/ha, antidote 8.96 kg/ha
[13] = Herbicide No.1 1.12 kg/ha + ERADICANE EXTRA 8.96 kg/ha, antidote 2.24 kg/ha
[14] = Herbicide No.1 1.12 kg/ha + ERADICANE EXTRA 8.96 kg/ha, antidote 8.96 kg/ha
[15] = Herbicide No.1 0.14 + No.12 3.36 kg/ha + antidote 2.24 kg/ha
[16] = Herbicide No.1 0.14 + No.12 3.36 kg/ha + antidote 8.96 kg/ha
[17] = Herbicide No.1 0.56 + No.12 3.36 kg/ha + antidote 2.24 kg/ha
[18] = Herbicide No.1 0.56 + No.12 3.36 kg/ha + antidote 8.96 kg/ha
[19] = Herbicide No.1 0.56 kg/ha + SUTAN + 8.96 kg/ha, antidote 2.24 kg/ha
[20] = Herbicide No.1 0.56 kg/ha + SUTAN + 8.96 kg/ha, antidote 8.96 kg/ha
[21] = Herbicide No.1 1.12 kg/ha + SUTAN + 8.96 kg/ha, antidote 2.24 kg/ha
[22] = Herbicide No.1 1.12 kg/ha + SUTAN + 8.96 kg/ha, antidote 8.96 kg/ha
[23] = Herbicide No.1 0.56 kg/ha + ERADICANE 8.96 kg/ha, antidote 2.24 kg/ha
[24] = Herbicide No.1 0.56 kg/ha + ERADICANE 8.96 kg/ha, antidote 8.96 kg/ha
[25] = Herbicide No.1 1.12 kg/ha + ERADICANE 8.96 kg/ha, antidote 2.24 kg/ha
[26] = Herbicide No.1 1.12 kg/ha + ERADICANE 8.96 kg/ha, antidote 8.96 kg/ha

With `CC1(C(Cl)Cl)OCCO1` [compound 13] as the compound, how does the “% Injury BYG” value [1, 11] read?
The value was 90%.

And the “% Injury BYG” value [1, 12]?
The value was 90%.

What about the “% Injury BYG” value [1, 13] of the same compound?
The value was 90%.

What about the “% Injury BYG” value [1, 14] of the same compound?
Its value is 95%.

And the “% Injury VL” value [2, 11]?
Its value is 65%.

What about the “% Injury VL” value [2, 12] of the same compound?
Its value is 70%.

And the “% Injury VL” value [2, 13]?
Its value is 80%.

What about the “% Injury VL” value [2, 14] of the same compound?
Its value is 85%.

And the “% Injury BYG” value [3, 15]?
The value was 100%.

And the “% Injury BYG” value [3, 16]?
Its value is 100%.

And the “% Injury BYG” value [3, 17]?
The value was 100%.

And the “% Injury BYG” value [3, 18]?
Its value is 100%.

And the “% Injury VL” value [4, 15]?
Its value is 75%.

What about the “% Injury VL” value [4, 16] of the same compound?
The value was 80%.

And the “% Injury VL” value [4, 17]?
Its value is 85%.

What about the “% Injury VL” value [4, 18] of the same compound?
Its value is 85%.

What about the “% Injury BYG” value [5, 19] of the same compound?
Its value is 40%.

What about the “% Injury BYG” value [5, 20] of the same compound?
The value was 50%.

What about the “% Injury BYG” value [5, 21] of the same compound?
The value was 70%.

What about the “% Injury BYG” value [5, 22] of the same compound?
Its value is 70%.

And the “% Injury VL” value [6, 19]?
The value was 55%.

What about the “% Injury VL” value [6, 20] of the same compound?
The value was 40%.

What about the “% Injury VL” value [6, 21] of the same compound?
Its value is 70%.

What about the “% Injury VL” value [6, 22] of the same compound?
The value was 70%.

What about the “% Injury Corn” value (corn [7]; Herbicide No.1 0.14 + No.9 2.24 kg/ha + antidote 2.24 kg/ha) of the same compound?
Its value is 25%.

What about the “% Injury Corn” value (corn [7]; Herbicide No.1 0.14 + No.9 2.24 kg/ha + antidote 8.96 kg/ha) of the same compound?
Its value is 10%.

What about the “% Injury Corn” value (corn [7]; Herbicide No.1 0.56 + No.9 2.24 kg/ha + antidote 2.24 kg/ha) of the same compound?
The value was 45%.

What about the “% Injury Corn” value (corn [7]; Herbicide No.1 0.56 + No.9 2.24 kg/ha + antidote 8.96 kg/ha) of the same compound?
The value was 30%.

And the “% Injury Corn” value (corn [8]; Herbicide No.1 0.14 kg/ha + Herbicide No.13 2.24 kg/ha, antidote rate 2.24 kg/ha)?
Its value is 10%.

And the “% Injury Corn” value (corn [8]; Herbicide No.1 0.14 kg/ha + Herbicide No.13 2.24 kg/ha, antidote rate 8.96 kg/ha)?
Its value is 0%.

And the “% Injury Corn” value (corn [8]; Herbicide No.1 0.56 kg/ha + Herbicide No.13 2.24 kg/ha, antidote rate 2.24 kg/ha)?
The value was 25%.

And the “% Injury Corn” value (corn [8]; Herbicide No.1 0.56 kg/ha + Herbicide No.13 2.24 kg/ha, antidote rate 8.96 kg/ha)?
Its value is 20%.

What about the “% Injury BYG” value [9, 23] of the same compound?
Its value is 85%.

What about the “% Injury BYG” value [9, 24] of the same compound?
The value was 85%.

What about the “% Injury BYG” value [9, 25] of the same compound?
The value was 85%.

And the “% Injury BYG” value [9, 26]?
The value was 90%.

What about the “% Injury VL” value [10, 23] of the same compound?
Its value is 80%.

And the “% Injury VL” value [10, 24]?
Its value is 80%.

What about the “% Injury VL” value [10, 25] of the same compound?
Its value is 75%.

What about the “% Injury VL” value [10, 26] of the same compound?
Its value is 75%.
